Data taken from patent EP0696280B1, “SUBSTITUTED PYRROLIDIN-3-YL-ALKYL-PIPERIDINES USEFUL AS TACHYKININ ANTAGONISTS” (MERRELL PHARMACEUTICALS INC., priority 1993, dated 1994).
Where a name gives a salt, the structure may show the parent alone. Read-outs that look alike come from different tables or passages of the source.

Columns and labels:
NK-3 receptor = target: T1, NK-3 receptor (Cavia porcellus, UniProt P30098); assay: Antagonism of iodinated tachykinin binding to NK-3 receptor (125I-Bolton Hunter labeled Lys-4 eledoisin, guinea pig cerebral cortex membranes)
T1 construct: freshly collected guinea pig cerebral cortex; from tissue; host or cells: guinea pig cerebral cortex membranes
T1 sequence (P30098 1-440): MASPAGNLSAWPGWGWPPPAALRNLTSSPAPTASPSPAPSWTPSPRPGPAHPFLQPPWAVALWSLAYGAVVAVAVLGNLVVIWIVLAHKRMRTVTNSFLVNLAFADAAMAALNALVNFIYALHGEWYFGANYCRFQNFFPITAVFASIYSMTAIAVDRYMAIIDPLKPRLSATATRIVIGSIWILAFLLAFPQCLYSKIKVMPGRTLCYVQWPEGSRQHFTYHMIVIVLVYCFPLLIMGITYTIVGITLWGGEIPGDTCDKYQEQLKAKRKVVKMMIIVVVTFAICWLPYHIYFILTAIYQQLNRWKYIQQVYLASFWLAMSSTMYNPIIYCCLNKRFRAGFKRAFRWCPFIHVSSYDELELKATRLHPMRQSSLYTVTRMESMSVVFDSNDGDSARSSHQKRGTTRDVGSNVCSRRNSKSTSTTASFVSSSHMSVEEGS
Procedure: (§1) The NK1 receptor affinity of proposed tachykinin antagonists was devaluated in guinea pig lungs (Keystone Biologicals, Cleveland, OH), affinity for the NK2 receptor evaluated in HSKR-1 cells (which are mouse 3T3 fibroblasts expressing the human jejunal NK2 receptor) and NK-3 receptor affinity was evaluated in freshly collected guinea pig cerebral cortex. Tissues or cells were homogenized with a Polytron in 15 volumes of 50 mM Tris-HCl buffer (pH 7.4, 4°C) and centrifuged. The pellet was resuspended in Tris-HCl buffer and was centrifuged; the pellet was washed twice by resuspension. The final pellet was resuspended at a concentration of 40 mg/ml for tissues (guinea pig lung and cerebral cortex) and 20 mg/ml for cells in incubation buffer and remained at room temperature for at least 15 min prior to use. Receptor binding was initiated by addition of 250 µl membrane preparation in duplicate to 0.1 nM of the following radioligands: ^125I-Bolton Hunter Lys-3 labeled substance P; ^125iodohistidyl-1-neurokinin A; and ^125I-Bolton Hunter labeled Lys-4 eledoisin in a final volume of 500 µl of buffer containing 50 mM Tris-HCl (pH 7.4 at room temperature), 0.1% bovine serum albumin, 2 mM MnCl2, 40 µg/ml bacitracin, 4 µg/ml leupeptin and chymostatin, 1 µM thiorphan and various doses of the putative tachykinin antagonists. Incubations were performed at room temperature for 90 min (NK1 receptor assays) or 2 hr (NK2 and NK3 receptor assays); binding was terminated by addition of 50 mM Tris-HCl buffer (pH 7.4, 4°C) and filtration under vacuum through GF/B filters presoaked with 0.1% polyethyleneimine (NK1 receptor assays) or 0.5% bovine serum albumin (NK2 and NK3 receptor assays). Filter bound radioactivity was quantitated in a gamma counter. Nonspecific binding was defined as binding in the presence of 1 µM substance P, neurokinin A, or eledoisin. Specific binding was calculated by subtracting nonspecific binding from total binding. Competition of iodinated SP, NKA, or eledoisin binding by test compounds or standards was expressed as a percentage of this maximum competition. IC50 values (concentration required to inhibit 50% of receptor binding) were generated for each of the test compounds by nonlinear regression using an iterative curve fitting program (GraphPAD Inplot, San Diego, CA).

NK1 receptor [1] = target: T2, NK1 receptor (Cavia porcellus, UniProt P30547); assay: Antagonism of iodinated tachykinin binding to NK1 receptor (125I-Bolton Hunter Lys-3 labeled substance P, guinea pig lung membranes)
T2 construct: Tissues or cells were homogenized with a Polytron in 15 volumes of 50 mM Tris-HCl buffer; tissue Keystone Biologicals, Cleveland, OH; host or cells: guinea pig lung membranes
Procedure: as §1

NK1 receptor [2] = target: T3, NK1 receptor (Homo sapiens, UniProt P25103); assay: Antagonism of NK1 receptor mediated (SP-induced) phosphatidylinositol turnover in UC11 cells; format: cell-based
T3 construct: endogenous in cells; host or cells: UC11 cells
Procedure: Tachykinin-mediated inositol phosphate accumulation was measured in UCll or SKLKB82#3 cells in the presence and absence of NK1 or NK2 receptor antagonists, respectively. Tissues were incubated in Krebs-Henseleit buffer at 37°C with 95% O2-5% CO2 gassing. Tissues were then incubated with fresh buffer containing 100 µCi of myo-[2-^3H(N)] inositol at 37°C for 60 min with gentle gassing. After washing twice at room temperature in 5 ml buffer containing 10 mM LiCl, tissues were incubated for 30 min at room temperature with a buffer change at 15 min. Buffer was removed and Krebs-Henseleit buffer (containing 40 µg/ml bacitracin, 4 µg/ml each of leupeptin and chymostatin, 0.1% bovine serum albumin and 10 mM each of thiorphan and LiCl) added. After 15 min, SP was added to UCll cells or NKA to SKLKB82#3 cells at various concentrations to start the reaction. After incubation for 60 min at room temperature the reaction was terminated by addition of 930 µl chloroform: methanol (1:2 by volume) to each tube, followed by 310 µl chloroform and 310 µl doubly distilled water. Samples were vortexed, centrifuged, and 0.9 ml of the aqueous (top) phase removed and added to 2 ml ddH2O. The mixture was vortexed and loaded onto a 50% Bio-Rad AG 1-X8 (formate form, 100-200 mesh) exchange column (Bio-Rad Laboratories, Hercules, CA). The columns were washed, in order, with: 1) 10 ml doubly distilled water, 2) 5 ml of 5 mM disodium tetraborate/60 mM sodium formate, and 3) 5 ml of 1 M ammonium formate/0.1 M formic acid. The third elution was collected and 1 ml counted in 7 ml scintillation fluid. A 50 µl aliquot of the organic (bottom) phase was removed, dried in a scintillation vial and counted in 7 ml scintillation fluid.
The ratio of DPM in the aqueous phase aliquot (total inositol phosphates) to the DPM in the 50 µl organic phase aliquot (total [^3H]inositol incorporated) was calculated for each sample. Data are expressed as a percent of agonist-induced accumulation of [^3H]-inositol phosphates over basal levels. The ratios in the presence of test compound and/or standards were compared to the ratios for control samples (i.e. no stimulating agonist). Dose-response graphs were constructed and the abilities of the test compounds to inhibit tachykinin-induced phosphatidylinositol turnover determined with the aid of a computer program. […] Data is expressed as percent stimulation of total inositol phosphate accumulation over basal levels and normalized to the maximum response produced by SP. […] Schild analysis is performed using dose response curves (such as those presented in Figures 1a and 1b) to obtain a value indicative of the strength of a competitive antagonist and is expressed as the pA2, which is the negative logarithm of the molar concentration of antagonist which reduces the effect of a dose of agonist to one-half of that expected at the dose of agonist. […]
Values are mean (95% confidence limits) derived from Schild analysis of 2-3 experiments per compound per receptor.

[3] = Schild analysis, SP in UC11 cells, mean (95% confidence limits), 2-3 experiments

T2 sequence (P30547 whole entry): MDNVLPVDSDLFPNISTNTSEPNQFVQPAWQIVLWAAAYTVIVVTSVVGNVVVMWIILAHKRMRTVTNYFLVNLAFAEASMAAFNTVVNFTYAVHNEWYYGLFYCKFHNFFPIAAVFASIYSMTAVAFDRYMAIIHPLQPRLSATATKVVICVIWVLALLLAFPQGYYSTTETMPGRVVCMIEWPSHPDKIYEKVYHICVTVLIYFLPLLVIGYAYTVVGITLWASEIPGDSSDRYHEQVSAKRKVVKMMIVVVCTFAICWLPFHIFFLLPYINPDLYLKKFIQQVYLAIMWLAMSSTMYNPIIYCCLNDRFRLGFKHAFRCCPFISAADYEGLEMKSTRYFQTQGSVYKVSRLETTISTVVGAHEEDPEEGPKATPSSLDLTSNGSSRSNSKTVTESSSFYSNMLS
T3 sequence (P25103 whole entry): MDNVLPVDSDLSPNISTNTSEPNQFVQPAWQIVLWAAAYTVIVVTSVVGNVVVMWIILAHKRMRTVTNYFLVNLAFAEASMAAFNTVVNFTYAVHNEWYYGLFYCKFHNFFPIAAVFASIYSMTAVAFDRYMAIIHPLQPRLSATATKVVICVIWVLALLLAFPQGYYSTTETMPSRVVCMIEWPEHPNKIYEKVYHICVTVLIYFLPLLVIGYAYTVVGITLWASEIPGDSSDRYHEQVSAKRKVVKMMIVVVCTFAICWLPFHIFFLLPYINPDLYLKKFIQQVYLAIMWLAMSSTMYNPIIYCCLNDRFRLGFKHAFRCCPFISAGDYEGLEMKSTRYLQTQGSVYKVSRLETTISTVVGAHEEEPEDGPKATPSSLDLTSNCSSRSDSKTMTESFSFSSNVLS

| Structure (SMILES) | IC50 (NK-3 receptor) [nM] | IC50 (NK1 receptor [1]) [nM] | NK-1 RECEPTOR -SLOPE (NK1 receptor [2]; [3]) | Kb (NK1 receptor [2]; Schild analysis, SP in UC11 cells, mean (95% confidence limits), 2-3 experiments, read-out: NK-1 RECEPTOR pA2 (converted)) [nM] | affinity for NK3 receptors (NK-3 receptor; result in words) | affinity for NK1 receptors (NK1 receptor [1]; result in words) | antagonism of the receptor mediated SP induced PI turnover (NK1 receptor [2]; UC11 cells, Figure 1a, result in words) | Kb (NK1 receptor [2]) [nM] |
| --- | --- | --- | --- | --- | --- | --- | --- | --- |
| COc1cc(C(=O)N2CCC(CCN3CCC(C(N)=O)(c4ccccc4)CC3)(c3ccc(Cl)c(Cl)c3)C2)cc(OC)c1OC (racemic) [Example 3A, 1-[2-[3-(3,4-dichloro-phenyl-3-yl)-1-(3,4,5-trimethoxy-benzoyl)-pyrrolidin-3-yl]-ethyl] -4-phenyl-piperidine-4-carboxylic acid amide hydrochloride] | 54.2 | 5.97 | 0.90 (0.65-1.15) | 12.3 |  |  |  |  |
| COc1cc(C(=O)N2CCC(CCN3CCC(C(N)=O)(c4ccccc4)CC3)(c3ccc(Cl)c(Cl)c3)C2)cc(OC)c1OC (centres unmarked) [Example 3, 1-[2-[3-(3,4-dichloro-phenyl)-1-(3,4,5-trimethoxy-benzoyl)-pyrrolidin-3-yl]-ethyl]-4-phenyl-piperidine-4-carboxylic acid amide] |  | 5 |  |  | high affinity | high affinity | dose related antagonism |  |
| COc1cccc(OC)c1C(=O)N1CCC(CCN2CCC(C(N)=O)(c3ccccc3)CC2)(c2ccc(Cl)c(Cl)c2)C1 (racemic) [Example 5A, 1-[2-[3-(3,4-dichloro-phenyl-3-yl)-1-(2,6-dimethoxy-benzoyl)-pyrrolidin-3-yl]-ethyl]-4-phenyl-piperidine-4-carboxylic acid amide hydrochloride] |  | 20 | 1.17 (0.41-1.93) |  |  |  |  | 47.9 |
